Measurements: the supplement of paper PMC6045584
± gives the standard deviation of the averaged measurements.

Columns and labels:
SAPACITABINE = compound: CCCCCCCCCCCCCCCC(=O)Nc1ccn([C@@H]2O[C@H](CO)[C@@H](O)[C@@H]2C#N)c(=O)n1 [SAPACITABINE]; assay: surviving fraction relative to DMSO-only wells; higher = less growth inhibition; conditions: exposure time: 5 days
How it was run: (§1)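 Log-phase tumour cell lines, 250–500 cells per well in 384-well plates, received inhibitors at 0.5, 1, 5, 10, 50, 100, 500 and 1000 nM continuously for five days, starting 24 hours after seeding. Viability was quantified with CellTiter-Glo luminescence and normalised to the median of DMSO-only wells to give surviving fraction. Three screens were run per line, and a line stayed in only with replicate Pearson r >0.7 and median Z' >0.3.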

AFATINIB = compound: CN(C)C/C=C/C(=O)Nc1cc2c(Nc3ccc(F)c(Cl)c3)ncnc2cc1O[C@H]1CCOC1 [AFATINIB]; assay: as above; conditions: exposure time: 5 days
How it was run: as §1

| Test System | surviving fraction (SAPACITABINE; 0.5 nM) | surviving fraction (SAPACITABINE; 1 nM) | surviving fraction (SAPACITABINE; 5 nM) | surviving fraction (SAPACITABINE; 10 nM) | surviving fraction (SAPACITABINE; 50 nM) | surviving fraction (SAPACITABINE; 100 nM) | surviving fraction (SAPACITABINE; 500 nM) | surviving fraction (SAPACITABINE; 1000 nM) | surviving fraction (AFATINIB; 0.5 nM) | surviving fraction (AFATINIB; 1 nM) | surviving fraction (AFATINIB; 5 nM) | surviving fraction (AFATINIB; 10 nM) | surviving fraction (AFATINIB; 50 nM) | surviving fraction (AFATINIB; 100 nM) | surviving fraction (AFATINIB; 500 nM) | surviving fraction (AFATINIB; 1000 nM) |
| --- | --- | --- | --- | --- | --- | --- | --- | --- | --- | --- | --- | --- | --- | --- | --- | --- |
| CHLA90 AUTONOMIC GANGLIA | 0.843 ± 0.099 | 0.692 ± 0.038 | 0.797 ± 0.052 | 0.235 ± 0.019 | 0.889 ± 0.092 | 0.755 ± 0.057 | 0.641 ± 0.042 | 0.212 ± 0.038 | 0.991 ± 0.042 | 0.981 ± 0.056 | 0.839 ± 0.063 | 0.849 ± 0.077 | 0.819 ± 0.017 | 0.796 ± 0.052 | 0.775 ± 0.051 | 0.593 ± 0.036 |
| NCIH441 LUNG | 1.042 ± 0.009 | 0.975 ± 0.077 | 1.02 ± 0.036 | 0.913 ± 0.034 | 0.53 ± 0.023 | 0.363 ± 0.051 | 0.34 ± 0.025 | 0.312 ± 0.023 | 1.15 ± 0.086 | 1.11 ± 0.042 | 1.1 ± 0.1 | 1.04 ± 0.04 | 1.03 ± 0.042 | 0.851 ± 0.11 | 0.686 ± 0.027 | 0.409 ± 0.017 |
| MCF7 BREAST | 0.826 ± 0.037 | 0.803 ± 0.02 | 0.807 ± 0.015 | 0.716 ± 0.022 | 0.923 ± 0.028 | 0.833 ± 0.046 | 0.705 ± 0.033 | 0.538 ± 0.0081 | 0.944 ± 0.025 | 0.905 ± 0.028 | 0.955 ± 0.017 | 0.942 ± 0.032 | 1.01 ± 0.035 | 1.08 ± 0.053 | 0.986 ± 0.073 | 0.953 ± 0.023 |
| COLO320DM LARGE INTESTINE | 1.01 ± 0.054 | 0.88 ± 0.044 | 1.08 ± 0.043 | 0.386 ± 0.015 | 0.887 ± 0.057 | 0.689 ± 0.0072 | 0.597 ± 0.024 | 0.185 ± 0.0083 | 1.14 ± 0.075 | 1.06 ± 0.088 | 1.08 ± 0.14 | 1.06 ± 0.073 | 1.04 ± 0.083 | 1.04 ± 0.08 | 0.872 ± 0.093 | 0.634 ± 0.037 |
| NOS1 BONE | 0.853 ± 0.16 | 0.774 ± 0.081 | 0.938 ± 0.16 | 0.863 ± 0.062 | 0.968 ± 0.12 | 0.973 ± 0.13 | 0.811 ± 0.059 | 0.764 ± 0.14 | 0.993 ± 0.2 | 0.997 ± 0.014 | 1.05 ± 0.066 | 0.947 ± 0.04 | 1.13 ± 0.11 | 0.983 ± 0.1 | 0.238 ± 0.019 | 0.096 ± 0.0027 |
| KPD BONE | 0.887 ± 0.013 | 0.886 ± 0.043 | 0.977 ± 0.045 | 0.946 ± 0.1 | 0.926 ± 0.024 | 0.815 ± 0.013 | 0.52 ± 0.028 | 0.344 ± 0.017 | 0.964 ± 0.051 | 0.978 ± 0.045 | 1.04 ± 0.066 | 0.976 ± 0.051 | 1.08 ± 0.06 | 0.888 ± 0.034 | 0.65 ± 0.056 | 0.354 ± 0.014 |
| HMT3552 BREAST | 0.838 ± 0.009 | 0.825 ± 0.075 | 0.943 ± 0.027 | 0.887 ± 0.053 | 1.141 ± 0.0031 | 1 ± 0.093 | 0.418 ± 0.019 | 0.303 ± 0.024 | 0.823 | 0.878 | 0.885 | 0.727 | 0.904 | 0.881 | 0.593 | 0.278 |
| HMLE3 BREAST | 0.846 ± 0.045 | 0.738 ± 0.037 | 0.898 ± 0.017 | 0.244 ± 0.014 | 0.892 ± 0.095 | 0.67 ± 0.11 | 0.344 ± 0.039 | 0.175 ± 0.0071 | 0.989 ± 0.042 | 1.02 ± 0.034 | 0.993 ± 0.054 | 0.904 ± 0.074 | 0.905 ± 0.035 | 0.946 ± 0.04 | 0.842 ± 0.087 | 0.77 ± 0.021 |
| CAL51 BREAST | 0.878 ± 0.1 | 0.838 ± 0.14 | 0.977 ± 0.074 | 0.929 ± 0.1 | 0.789 ± 0.0083 | 0.533 ± 0.13 | 0.112 ± 0.022 | 0.0657 ± 0.014 | 0.97 ± 0.048 | 1.02 ± 0.022 | 1.002 ± 0.0031 | 0.977 ± 0.033 | 1.04 ± 0.019 | 1.02 ± 0.028 | 0.963 ± 0.085 | 0.682 ± 0.06 |
| JURKAT HAEMATOPOIETIC AND LYMPHOID TISSUE | 0.944 ± 0.031 | 0.973 ± 0.03 | 0.52 ± 0.0059 | 0.245 ± 0.008 | 0.078 ± 0.0036 | 0.034 ± 0.001 | 0.0213 ± 0.00058 | 0.023 | 1.07 ± 0.017 | 1.08 ± 0.025 | 1.07 ± 0.025 | 1.07 ± 0.02 | 1.03 ± 0.098 | 1.05 ± 0.023 | 0.779 ± 0.014 | 0.259 ± 0.043 |
| MDAMB468 BREAST | 0.811 ± 0.012 | 0.862 ± 0.087 | 0.88 ± 0.069 | 0.847 ± 0.086 | 0.792 ± 0.03 | 0.56 ± 0.07 | 0.204 ± 0.018 | 0.193 ± 0.028 | 1.07 ± 0.026 | 1.04 ± 0.021 | 0.861 ± 0.078 | 0.767 ± 0.14 | 0.61 ± 0.017 | 0.617 ± 0.025 | 0.297 ± 0.012 | 0.0913 ± 0.0067 |
| CASKI CERVIX | 0.804 ± 0.055 | 0.843 ± 0.048 | 0.795 ± 0.026 | 0.746 ± 0.04 | 1.02 ± 0.053 | 0.936 ± 0.036 | 0.45 ± 0.019 | 0.268 ± 0.0036 | 0.715 ± 0.055 | 0.522 ± 0.028 | 0.409 ± 0.041 | 0.274 ± 0.015 | 0.259 ± 0.0076 | 0.223 ± 0.006 | 0.049 ± 0.007 | 0.02 ± 0.0017 |
| MG63 BONE | 0.903 ± 0.027 | 0.898 ± 0.027 | 0.943 ± 0.021 | 0.9 ± 0.031 | 0.601 ± 0.014 | 0.357 ± 0.013 | 0.123 ± 0.019 | 0.217 ± 0.013 | 1.02 ± 0.046 | 1.03 ± 0.023 | 1.08 ± 0.022 | 1.058 ± 0.0069 | 1.05 ± 0.059 | 1.08 ± 0.017 | 0.951 ± 0.04 | 0.831 ± 0.038 |
| JIMT1 BREAST | 0.862 ± 0.018 | 0.8617 ± 0.0045 | 0.899 ± 0.032 | 0.87 ± 0.025 | 0.966 ± 0.046 | 0.859 ± 0.04 | 0.632 ± 0.015 | 0.558 ± 0.032 | 0.987 ± 0.023 | 0.994 ± 0.029 | 0.96 ± 0.015 | 0.909 ± 0.044 | 0.732 ± 0.028 | 0.687 ± 0.049 | 0.603 ± 0.012 | 0.301 ± 0.014 |
| HELA CERVIX | 0.847 ± 0.031 | 0.843 ± 0.033 | 0.837 ± 0.027 | 0.819 ± 0.018 | 0.954 ± 0.064 | 1.02 ± 0.013 | 0.826 ± 0.066 | 0.794 ± 0.035 | 1.08 ± 0.041 | 1.09 ± 0.049 | 1.06 ± 0.082 | 1.02 ± 0.022 | 1.19 ± 0.028 | 1.2 ± 0.018 | 1.22 ± 0.075 | 1.1 ± 0.045 |
| HCC1806 BREAST | 0.698 ± 0.06 | 0.673 ± 0.062 | 0.652 ± 0.048 | 0.462 ± 0.067 | 0.259 ± 0.028 | 0.167 ± 0.0089 | 0.0637 ± 0.0081 | 0.061 ± 0.007 | 1.1 ± 0.084 | 1 ± 0.038 | 0.893 ± 0.071 | 0.726 ± 0.075 | 0.57 ± 0.045 | 0.586 ± 0.028 | 0.401 ± 0.036 | 0.343 ± 0.03 |
